Laboratory results published in EP0774116B1, “METHOD FOR SCREENING COMPOUND LIBRARIES” (ZENECA LIMITED, priority 1994, dated 1996).

Key:
endothelin receptor = assay: IC-50 determination by conventional filtration techniques (Holland et al.); format: binding
[1] = tested on: porcine endothelin receptor; assay: Zone screening scintillation proximity assay in agarose gel, [125-I]Endothelin binding to receptor-coated SPA microspheres; conditions: one bead per well
Description: Agarose (Sigma) was suspended in distilled water and heated to boiling point in a microwave to melt, then cooled to 50 deg. C. Microspheres coated with the porcine endothelin receptor (1 vial, SPA, Amersham) were re-constituted in assay buffer (50 mM Tris.HCl, 1 mM EDTA, 0.1% BSA, 10 mM MgC12, pH 6.4 (25 ml). This suspension (10 ml) was then added to the cooled (50 deg. C) agarose (10 ml), vortexed mixed and 0.1 ml portions immediately added to wells of a white microtitre plate (Picoplate-96, Packard).
Test compounds were prepared as follows. Polystyrene beads (as used in example 1) were suspended in DMSO solutions of endothelin-1 (Cambridge Research Biochemicals) or various test compounds (T1 - T4) at various concentrations (see Table 1) for about 2 hours. After a spin (1 min.) on a micro-fuge, the beads were washed briefly in ethanol. Single beads were then transfered with forceps into the centre of the wells containing the SPA/agarose mix, one bead per well.
[125-I]Endothelin (Amersham) was diluted into the assay buffer to give a 180 pM solution. 6 ml of this was added to 6 ml of 1% agarose (at 50 deg. C) and vortexed mixed. 0.05 ml aliquots were then immediately added to each well. The plate was then sealed (Topseal-S, Packard) and counted at intervals (Top Count, Packard) for 2 minutes per well. By reference to a total control (no compound present) and non-specific binding control (40 micromolar endothelin-1, measured after 8 hours incubation), the per cent inhibition caused by each compound as it diffused away from the bead was calculated.
This inhibition is related to the potency of the compound. […]

[2] = molecular target: T1, endothelin converting enzyme (Bos taurus, UniProt P42891); assay: Zones of enzyme inhibition in Sephacryl gel with fluorogenic FRET substrate, fluorescence imaging; format: biochemical; conditions: beads impregnated with 10mM solution in DMSO; gel left at ambient temperature overnight; FRET substrate 4micromolar
T1 construct: Samples of endothelin converting enzyme (ECE) were obtained essentially according to the method of Okada et al; endogenous in cells; By own knowledge of Okada et al. 1990: membrane fraction of cultured bovine endothelial cells
T1 sequence (P42891 1-754): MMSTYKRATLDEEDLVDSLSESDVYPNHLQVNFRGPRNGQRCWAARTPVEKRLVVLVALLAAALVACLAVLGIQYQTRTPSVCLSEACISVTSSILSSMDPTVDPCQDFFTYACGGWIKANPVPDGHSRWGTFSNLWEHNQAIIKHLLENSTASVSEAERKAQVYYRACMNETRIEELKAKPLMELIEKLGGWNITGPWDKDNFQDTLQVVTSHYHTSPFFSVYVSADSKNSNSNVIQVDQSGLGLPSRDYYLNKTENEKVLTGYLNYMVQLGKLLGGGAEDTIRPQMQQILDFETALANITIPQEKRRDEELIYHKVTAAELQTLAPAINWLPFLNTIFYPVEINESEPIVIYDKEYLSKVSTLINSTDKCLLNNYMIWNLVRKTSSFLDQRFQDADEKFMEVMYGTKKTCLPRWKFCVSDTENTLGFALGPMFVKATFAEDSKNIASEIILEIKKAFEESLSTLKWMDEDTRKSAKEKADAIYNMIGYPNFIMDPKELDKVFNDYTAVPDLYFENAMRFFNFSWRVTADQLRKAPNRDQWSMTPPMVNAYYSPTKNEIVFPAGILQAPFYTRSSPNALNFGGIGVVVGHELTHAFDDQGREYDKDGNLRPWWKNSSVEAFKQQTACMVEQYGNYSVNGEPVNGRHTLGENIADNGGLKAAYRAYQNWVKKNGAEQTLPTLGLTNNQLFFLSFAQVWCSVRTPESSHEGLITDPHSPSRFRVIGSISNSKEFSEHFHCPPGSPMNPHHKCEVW
Description: In this example, polystyrene beads are impregnated with a compound (phosphoramidon) to simulate the situation that would arise when a compound is made on a bead and then released prior to contacting the assay medium. The assay medium comprises a Sephacryl™ gel containing an enzyme, endothelin converting enzyme, and a fluorogenic FRET substrate, following by fluorescence imaging of the gel.
Ca 300 beads as used in Example 1 were suspended in a solution of phosphoramidon (10mM) in DMSO, allowed to swell and washed briefly in DMSO.
The FRET substrate, was derived from that of human big endothelin-1, 16-37, with Glu-26 changed to Cys: [formula] Fluorescein had been attached to Cys-26 and tetramethylrhodamine attached to the N-terminus, such that cleavage of the substrate removes the quenching effect of the tetramethylrhodamine resulting in an increase of fluorescein fluorescence.
The assay phase was assembled as follows. Sephacryl™ S-500 gel was suspended in 0.2M Tris/HCl pH 7.2 containing 0.5% BSA and then washed with buffer alone. To this gel suspension (24.5ml) was added the FRET substrate (3ml, 4micromolar final) and ECE (2.6 microlitres). After gentle mixing, the gel was poured into the polystyrene lid of a microtitre plate, allowed to settle and excess liquid gently removed with a tissue. […] The gel was then imaged on a fluorescence imager (FluorImager, Molecular Dynamics).

IC50 (endothelin receptor) [nM]	inhibition (%) ([1]; readings at 2 hours, bead soaked in 1.25 micromolar DMSO solution)	inhibition (%) ([1]; readings at 2 hours, bead soaked in 2.5 micromolar DMSO solution)	inhibition (%) ([1]; readings at 2 hours, bead soaked in 5 micromolar DMSO solution)	inhibition (%) ([1]; readings at 2 hours, bead soaked in 10 micromolar DMSO solution)	inhibition (%) ([1]; readings at 2 hours, bead soaked in 20 micromolar DMSO solution)	inhibition (%) ([1]; readings at 2 hours, bead soaked in 40 micromolar DMSO solution)	inhibition (%) ([1]; readings at 8 hours, bead soaked in 1.25 micromolar DMSO solution)	inhibition (%) ([1]; readings at 8 hours, bead soaked in 2.5 micromolar DMSO solution)	inhibition (%) ([1]; readings at 8 hours, bead soaked in 5 micromolar DMSO solution)	inhibition (%) ([1]; readings at 8 hours, bead soaked in 10 micromolar DMSO solution)	inhibition (%) ([1]; readings at 8 hours, bead soaked in 20 micromolar DMSO solution)	inhibition (%) ([1]; readings at 8 hours, bead soaked in 40 micromolar DMSO solution)	zones of enzyme inhibition in gel (fluorescence image) [2]	Compound
0.18	-0.6	12.3	19.5	36.3	85.2	(100) %	6.5	14.0	18.2	40.0	47.5	(100) %	–	endothelin-1
–	–	–	–	–	–	–	–	–	–	–	–	–	zones of reduced fluorescence	CC(C)C[C@H](NP(=O)(O)O[C@@H]1O[C@@H](C)[C@H](O)[C@@H](O)[C@H]1O)C(=O)N[C@@H](Cc1c[nH]c2ccccc12)C(=O)O [phosphoramidon]
